According to PubChem BioAssay AID190 (DTP/NCI, 2004):
Where “and” joins values, the source holds several entries; their conditions need not be identical. Identical values can stand only once. Inconclusive results and toxic doses are left out.

System: AKR/Lw mice, AKR lymphoma ip, median survival T/C
Assay: NCI In Vivo Anticancer Drug Screen. Data for tumor model Lymphoma AKR (Transplanted) (intraperitoneal) in AKR/Lw mice
Settings: endpoint: median survival time, higher = longer survival
Method: The antitumor activity of compounds was measured in mice bearing transplantable tumors. Survival or tumor size were measured and the results are expressed as the measurement made in the treated group (T) divided by the measurement made in the vehicle treated control group (C). The tumor model used in this assay is Lymphoma AKR (Transplanted) (intraperitoneal) in AKR/Lw mice

[1] = dose: 100.0 mg/kg/injection, schedule: Q01DX001 (ip), vehicle: Klucel (hydroxypropylcellulose) (HPC)
[2] = dose: 200.0 mg/kg/injection, schedule: Q01DX001 (ip), vehicle: Klucel (hydroxypropylcellulose) (HPC)
[3] = dose: 400.0 mg/kg/injection, schedule: Q01DX001 (ip), vehicle: Klucel (hydroxypropylcellulose) (HPC)
[4] = dose: 25.0 mg/kg/injection, schedule: Q01DX001 (ip), vehicle: saline
[5] = dose: 100.0 mg/kg/injection, schedule: Q01DX001 (ip), vehicle: saline

CC[C@]1(O)C[C@H]2CN(CCc3c([nH]c4ccccc34)[C@@](C(=O)OC)(c3cc4c(cc3OC)N(C=O)[C@H]3[C@@](O)(C(=O)OC)[C@H](OC(C)=O)[C@]5(CC)C=CCN6CC[C@]43[C@@H]65)C2)C1
T/C (dose: 0.01 mg/kg/injection, schedule: Q10DX002 (ip), vehicle: saline): 113 % of control | T/C (dose: 0.02 mg/kg/injection, schedule: Q01DX001 (ip), vehicle: saline): 110 % of control | T/C (dose: 0.02 mg/kg/injection, schedule: Q04DX003 (ip), vehicle: saline): 86 % of control | T/C (dose: 0.02 mg/kg/injection, schedule: Q10DX002 (ip), vehicle: saline): 119 % of control | T/C (dose: 0.03 mg/kg/injection, schedule: Q04DX003 (ip), vehicle: saline): 93 % of control and 107 % of control and 114 % of control | T/C (dose: 0.03 mg/kg/injection, schedule: Q10DX002 (ip), vehicle: saline): 119 % of control | T/C (dose: 0.05 mg/kg/injection, schedule: Q01DX001 (ip), vehicle: saline): 101 % of control | T/C (dose: 0.05 mg/kg/injection, schedule: Q04DX003 (ip), vehicle: saline): 94 % of control | T/C (dose: 0.06 mg/kg/injection, schedule: Q04DX002 (ip), vehicle: saline): 110 % of control | T/C (dose: 0.06 mg/kg/injection, schedule: Q04DX003 (ip), vehicle: saline): 111 % of control and 116 % of control | T/C (dose: 0.1 mg/kg/injection, schedule: Q01DX001 (ip), vehicle: saline): 103 % of control | T/C (dose: 0.1 mg/kg/injection, schedule: Q04DX003 (ip), vehicle: saline): 94 % of control | T/C (dose: 0.12 mg/kg/injection, schedule: Q01DX001 (ip), vehicle: saline): 100 % of control and 111 % of control and 119 % of control | T/C (dose: 0.12 mg/kg/injection, schedule: Q01DX009 (ip), vehicle: saline): 109 % of control | T/C (dose: 0.13 mg/kg/injection, schedule: Q04DX002 (ip), vehicle: water): 90 % of control and 95 % of control | T/C (dose: 0.2 mg/kg/injection, schedule: Q04DX003 (ip), vehicle: saline): 94 % of control | T/C (dose: 0.25 mg/kg/injection, schedule: Q01DX009 (ip), vehicle: saline): 109 % of control | T/C (dose: 0.4 mg/kg/injection, schedule: Q04DX003 (ip), vehicle: saline): 118 % of control | T/C (dose: 0.5 mg/kg/injection, schedule: Q04DX002 (ip), vehicle: saline): 223 % of control | T/C (dose: 0.5 mg/kg/injection, schedule: Q04DX002 (ip), vehicle: water): 107 % of control and 109 % of control | T/C (dose: 0.75 mg/kg/injection, schedule: Q01DX001 (ip), vehicle: saline): 157 % of control | T/C (dose: 1.0 mg/kg/injection, schedule: Q04DX003 (ip), vehicle: saline): 359 % of control | T/C (dose: 1.0 mg/kg/injection, schedule: Q10DX002 (ip), vehicle: saline): 33 % of control | T/C (dose: 1.5 mg/kg/injection, schedule: Q10DX002 (ip), vehicle: saline): 68 % of control | T/C (dose: 0.2 micrograms/kg/injection, schedule: Q01DX009 (ip), vehicle: saline): 103 % of control | T/C (dose: 0.5 micrograms/kg/injection, schedule: Q01DX009 (ip), vehicle: saline): 100 % of control | T/C (dose: 0.6 micrograms/kg/injection, schedule: Q01DX009 (ip), vehicle: saline): 96 % of control | T/C (dose: 1.0 micrograms/kg/injection, schedule: Q01DX009 (ip), vehicle: saline): 86 % of control and 100 % of control | T/C (dose: 1.2 micrograms/kg/injection, schedule: Q01DX009 (ip), vehicle: saline): 87 % of control | T/C (dose: 2.0 micrograms/kg/injection, schedule: Q01DX009 (ip), vehicle: saline): 94 % of control | T/C (dose: 6.0 micrograms/kg/injection, schedule: Q01DX009 (ip), vehicle: saline): 102 % of control and 114 % of control | T/C (dose: 15.0 micrograms/kg/injection, schedule: Q01DX009 (ip), vehicle: saline): 122 % of control | T/C (dose: 20.0 micrograms/kg/injection, schedule: Q01DX009 (ip), vehicle: saline): 97 % of control | T/C (dose: 25.0 micrograms/kg/injection, schedule: Q01DX009 (ip), vehicle: saline): 97 % of control | T/C (dose: 30.0 micrograms/kg/injection, schedule: Q01DX009 (ip), vehicle: saline): 112 % of control | T/C (dose: 50.0 micrograms/kg/injection, schedule: Q01DX009 (ip), vehicle: saline): 102 % of control | T/C (dose: 60.0 micrograms/kg/injection, schedule: Q01DX009 (ip), vehicle: saline): 120 % of control | T/C (dose: 100.0 micrograms/kg/injection, schedule: Q01DX009 (ip), vehicle: saline): 114 % of control

CCOC(=O)C(O)C(C#N)c1ccccc1 (stereo not given)
T/C (dose: 100.0 mg/kg/injection, schedule: Q01DX001 (ip), vehicle: other): 103 % of control | T/C (dose: 200.0 mg/kg/injection, schedule: Q01DX001 (ip), vehicle: other): 103 % of control | T/C (dose: 400.0 mg/kg/injection, schedule: Q01DX001 (ip), vehicle: other): 100 % of control

C1CCN2CC3CC(CN4CCCCC34)C2C1 (stereo not given)
T/C (dose: 10.0 mg/kg/injection, schedule: Q01DX001 (ip), vehicle: saline): 100 % of control | T/C (dose: 20.0 mg/kg/injection, schedule: Q01DX001 (ip), vehicle: saline): 100 % of control | T/C (dose: 40.0 mg/kg/injection, schedule: Q01DX001 (ip), vehicle: saline): 100 % of control

CC1(C)N=C(N)N=C(N)N1c1cc(Cl)c(Cl)cc1Cl
T/C (dose: 25.0 mg/kg/injection, schedule: Q01DX001 (ip), vehicle: Klucel (hydroxypropylcellulose) (HPC)): 106 % of control | T/C (dose: 35.0 mg/kg/injection, schedule: Q01DX001 (ip), vehicle: Klucel (hydroxypropylcellulose) (HPC)): 100 % of control | T/C (dose: 50.0 mg/kg/injection, schedule: Q01DX001 (ip), vehicle: Klucel (hydroxypropylcellulose) (HPC)): 106 % of control

O=C(/C=C/C(=O)Oc1ccc(Cl)cc1)Oc1ccc(Cl)cc1
T/C [1]: 92 % of control | T/C [2]: 89 % of control | T/C [3]: 107 % of control

COC(=O)c1ccc(NCC(C)(C)N)cc1
T/C (dose: 12.5 mg/kg/injection, schedule: Q01DX001 (ip), vehicle: saline): 100 % of control | T/C [4]: 94 % of control | T/C (dose: 50.0 mg/kg/injection, schedule: Q01DX001 (ip), vehicle: saline): 88 % of control

CC(/C=N/N=C(N)N)=N\N=C(N)N
T/C (dose: 1.5 mg/kg/injection, schedule: Q01DX015 (ip), vehicle: saline): 87 % of control | T/C (dose: 5.0 mg/kg/injection, schedule: Q01DX015 (ip), vehicle: saline): 90 % of control | T/C (dose: 6.25 mg/kg/injection, schedule: Q01DX015 (ip), vehicle: saline): 96 % of control | T/C (dose: 10.0 mg/kg/injection, schedule: Q01DX015 (ip), vehicle: saline): 90 % of control

CC(=O)NC1CC2c3ccccc3C1([N+](=O)[O-])c1ccccc12 (stereo not given)
T/C [1]: 104 % of control | T/C [2]: 97 % of control | T/C [3]: 102 % of control

Nc1ccccc1SC1CC(=O)N(c2ccccc2)C1=O (stereo not given)
T/C (dose: 100.0 mg/kg/injection, schedule: Q01DX001 (ip), vehicle: saline with Tween-80): 94 % of control | T/C (dose: 200.0 mg/kg/injection, schedule: Q01DX001 (ip), vehicle: saline with Tween-80): 94 % of control | T/C (dose: 400.0 mg/kg/injection, schedule: Q01DX001 (ip), vehicle: saline with Tween-80): 94 % of control

CC(C)OC(=O)Oc1cccc2c1C(=O)c1ccccc1C2=O
T/C [1]: 95 % of control | T/C [2]: 91 % of control

C/C=C(/Cl)c1c(C)cc(C)c(CC(=O)O)c1C
T/C [2]: 106 % of control | T/C [3]: 109 % of control

COc1ccccc1N1C(N)=NC(N)=NC1(C)C
T/C (dose: 11.0 mg/kg/injection, schedule: Q01DX001 (ip), vehicle: saline): 109 % of control | T/C (dose: 11.0 mg/kg/injection, schedule: Q04DX003 (ip), vehicle: saline): 91 % of control | T/C (dose: 16.0 mg/kg/injection, schedule: Q01DX001 (ip), vehicle: saline): 88 % of control | T/C [4]: 113 % of control | T/C (dose: 25.0 mg/kg/injection, schedule: Q04DX003 (ip), vehicle: saline): 102 % of control | T/C (dose: 37.5 mg/kg/injection, schedule: Q01DX001 (ip), vehicle: saline): 102 % of control | T/C (dose: 37.5 mg/kg/injection, schedule: Q04DX003 (ip), vehicle: saline): 88 % of control | T/C [5]: 90 % of control

ClC1=C(Cl)C2(Cl)C3COCC3C1(Cl)C2(Cl)Cl (stereo not given)
T/C [1]: 100 % of control | T/C [2]: 93 % of control | T/C [3]: 91 % of control

COc1ccc(CCN2C(=O)CSC2=S)cc1OC
T/C [1]: 100 % of control | T/C [3]: 100 % of control

CC[N+]1=NC2CCCC(C2)C1 (stereo not given)
T/C [5]: 101 % of control | T/C (dose: 200.0 mg/kg/injection, schedule: Q01DX001 (ip), vehicle: saline): 106 % of control

C#CCn1cnc2c(Cl)ncnc21
T/C [1]: 97 % of control | T/C [2]: 104 % of control | T/C [3]: 107 % of control
